Data reported in US12234248B2, “Co-crystal compounds comprising lithium ions and isonicotinamide” (UNIVERSITY OF LIMERICK, priority 2017, dated 2025).
Several values for one entry are separate records, joined by “and”; a condition that tells them apart may be missing. Equal entries are not always repeated.

How the values were obtained:
[1] = Stability of crystalline material under warm humid conditions (40° C., 75% relative humidity), PXRD before and after; assay type: physicochemical; settings: for PXRD pattern after storage compared with initial pattern: after 2 months at 75% relative humidity and 40° C.; for Stable?: stored at 40° C., 75% relative humidity, stable = retained crystal form for at least two weeks by PXRD
Protocol: The stability of these compounds under warm humid conditions was assessed as follows:
The crystalline material was stored at 40° C. in an atmosphere of 75% relative humidity.
Compounds were classed as stable if they retained their crystal form for at least two weeks as verified by examination of PXRD patterns collected before and after exposure to humidity.
It can be seen that the pattern obtained after 2 months at 75% relative humidity and 40° C. (upper trace) in this case is different.

[2] = Bioavailability in vivo in rats: lithium in plasma and brain by ICP-OES after oral administration; settings: for Cmax (brain) / Tmax (brain) / t½_Lambda_z (brain) / AUClast (brain) / Relative Brain BA (UL crystal forms, oral vs Li2CO3, oral): rat brain; for Cmax (brain) / Tmax (brain) / t½_Lambda_z (brain) / AUClast (brain) / Cmax (plasma) / Tmax (plasma) / t½_Lambda_z (plasma) / BRAIN CONC., Time(h) 2.00 / PLASMA CONC, Time(h) 2.00 / BRAIN CONC., Time(h) 24.00 / PLASMA CONC, Time(h) 24.00 / BRAIN CONC., Time(h) 48.00 / PLASMA CONC, Time(h) 48.00 / BRAIN CONC., Time(h) 72.00 / PLASMA CONC, Time(h) 72.00: 4 mEq/kg lithium oral; for Cmax (brain) / Tmax (brain) / Cmax (plasma) / Tmax (plasma): non-compartmental; for t½_Lambda_z (brain) / t½_Lambda_z (plasma): terminal phase; for AUClast (brain): time 0 to last quantifiable point; for Relative Brain BA (UL crystal forms, oral vs Li2CO3, oral) / Relative Plasma BA (UL crystal forms, oral vs Li2CO3 oral): relative to lithium carbonate; for Cmax (plasma) / Tmax (plasma) / t½_Lambda_z (plasma) / Relative Plasma BA (UL crystal forms, oral vs Li2CO3 oral): rat plasma; for BRAIN CONC., Time(h) 2.00 / PLASMA CONC, Time(h) 2.00 / BRAIN CONC., Time(h) 24.00 / PLASMA CONC, Time(h) 24.00 / BRAIN CONC., Time(h) 48.00 / PLASMA CONC, Time(h) 48.00 / BRAIN CONC., Time(h) 72.00 / PLASMA CONC, Time(h) 72.00: rat, individual rats (three per time); for BRAIN CONC., Time(h) 2.00 / PLASMA CONC, Time(h) 2.00: 2 h; for BRAIN CONC., Time(h) 2.00 / BRAIN CONC., Time(h) 24.00 / BRAIN CONC., Time(h) 48.00 / BRAIN CONC., Time(h) 72.00: lithium in brain; for PLASMA CONC, Time(h) 2.00 / PLASMA CONC, Time(h) 24.00 / PLASMA CONC, Time(h) 48.00 / PLASMA CONC, Time(h) 72.00: lithium in plasma; for BRAIN CONC., Time(h) 24.00 / PLASMA CONC, Time(h) 24.00: 24 h; for BRAIN CONC., Time(h) 48.00 / PLASMA CONC, Time(h) 48.00: 48 h; for BRAIN CONC., Time(h) 72.00 / PLASMA CONC, Time(h) 72.00: 72 h
Protocol: Male Sprague-Dawley rats, weighing 240-290 g, were treated through gastric intubation with formulations of lithium and compared with lithium carbonate as a reference. For each formulation a group of 12 rats was treated. 4 mEq/kg of lithium were orally administered, after suspension in 2 mL of corn seeds oil (“Olio Cuore”).
Four intervals' post-administration time (2, 24, 48 and 72 hours) were considered and three rats for each of them, employing the protocol used by Zaworotko and coworkers (Smith et al., Mol. Pharmaceutics 2013, 10, 4728-4738). At each time interval blood samples were collected through intra-cardiac […], these were treated with 50 μL of sodium heparin and centrifuged for 10 min at 1600 rpm. Plasma samples of approximately […] each were thus obtained. The brain was explanted in toto with perfusion with phosphate buffered saline (PBS) in order to preserve it in a viable state. The plasma and brain samples were immediately frozen at a temperature of −80° C., after measuring the weight of the brains.
In order to determine the concentration of the lithium by means of the ICP-OES (Inductively Coupled Plasma Optical Emission Spectometry) analysis, plasma and brain samples were purified and mineralized, respectively to obtain solutions suitable for analysis.
A 0.5 mL aliquot was taken from each sample, to which were added equal amounts of MilliQ water and concentrated nitric acid, in order to bring the lithium ion in solution in the form of LiNO3 and to obtain the precipitation of the proteins. At this point, each sample was sonicated for 10 min in an ultrasonic bath and diluted to a volume of 5.0 mL.
All samples were subjected to centrifugation for a period of 40 min, at a rotational speed of 6000 rpm, to obtain complete plasma proteins/solution separation. At the end supernatant liquid containing lithium was diluted to a final volume of 15 mL by adding MilliQ water. The obtained solutions were stored at a temperature of 4° C. until analysis.
The purpose of this phase was to obtain liquid samples, suitable to ICP-OES analysis, containing lithium in solution, starting from the solid organic tissue of the brain. The mineralization process allows the complete degradation of organic substances until the total transformation into simple inorganic substances.
The first operation performed was that the drying of the fabric, obtained through the use of a digester open PerkinElmer SPB 100-12: each sample of brain has been inserted in special containers Digitube™ 100 mL and maintained at a temperature of 80° C. for 120 min.
The second step involved the mineralization true and proper brain: each sample were added to 10 mL of concentrated nitric acid and 1.0 mL of hydrogen peroxide, then the system was brought to a temperature of 120° C. for 120 min. until the complete mineralization. With this procedure you get the desired biological degradation of organic compounds and the consequent passage of lithium in solution. The solutions thus obtained were collected, brought to a final volume of 20 mL with MilliQ water and preserved at a temperature of 4° C. until time of analysis.
In order to obtain the determination of lithium ion concentrations in the samples previously prepared, optical emission spectrometry inductively coupled plasma ICP-OES was used (PerkinElmer Optima 8000 spectrometer).
The analysis was conducted at the fixed wavelength of lithium (λ=670.784 nm) and the intensity of the radiation emitted by each sample was measured and compared standard solutions.
Plasma and brain concentration data were processed using a non-compartmental approach using WinNonlin® software (Pharsight Corporation, USA) and Microsoft Excel XP (Microsoft Corporation, […]).

COc1ccccc1C(=O)[O-].O=C(O)[C@@H]1CCCN1.[Li+] [Compound 1, [Li(2-methoxybenzoate)(L-proline)]n]
PXRD pattern after storage compared with initial pattern [1]: substantially identical | Stable? [1]: Yes | Cmax (brain) [2]: 3.5067 µg/g | Tmax (brain) [2]: 24 h | t½_Lambda_z (brain) [2]: 18.9045 h | AUClast (brain) [2]: 172.2533 mg·h/g | Relative Brain BA (UL crystal forms, oral vs Li2CO3, oral) [2]: 74.12% | Cmax (plasma) [2]: 4120 ng/mL | Tmax (plasma) [2]: 24 h | t½_Lambda_z (plasma) [2]: 12.9141 h | Relative Plasma BA (UL crystal forms, oral vs Li2CO3 oral) [2]: 58.42% | BRAIN CONC., Time(h) 2.00 [2]: 0.96 µg/g and 0.71 µg/g and 0.68 µg/g | PLASMA CONC, Time(h) 2.00 [2]: 3430 ng/mL and 1780 ng/mL and 2310 ng/mL | BRAIN CONC., Time(h) 24.00 [2]: 3.64 µg/g and 4.28 µg/g and 2.60 µg/g | PLASMA CONC, Time(h) 24.00 [2]: 3850 ng/mL and 6010 ng/mL and 2500 ng/mL | BRAIN CONC., Time(h) 48.00 [2]: 2.81 µg/g and 4.50 µg/g and 2.06 µg/g | PLASMA CONC, Time(h) 48.00 [2]: 970 ng/mL and 1780 ng/mL and 850 ng/mL | BRAIN CONC., Time(h) 72.00 [2]: 0.62 µg/g and 0.68 µg/g and 0.51 µg/g | PLASMA CONC, Time(h) 72.00 [2]: 230 ng/mL and 400 ng/mL and 310 ng/mL

CNCC(=O)O.O.O=C([O-])c1cccnc1.[Li+] [Compound 9, [Li(nicotinate)(sarcosine)(water)]n]
Stable? [1]: No

O=C(O)C(=O)O.O=C(O)C(=O)O.O=C([O-])C(=O)O.[Li+].c1c[nH]cn1.c1c[nH]cn1 [Compound 11, [(imidazolium)2^+(Li(hydogen oxalate)(oxalate))^−(oxalic acid)]]
PXRD pattern after storage compared with initial pattern [1]: different | Stable? [1]: No

O=C(O)[C@@H]1CCCN1.O=C([O-])c1ccccc1.[Li+] [Compound 12, [Li(benzoate)(L-proline)]n]
Stable? [1]: Yes

O=C(O)[C@@H]1CCCN1.O=C([O-])c1ccccc1O.[Li+] [Compound 14, [Li(salicylate)(L-proline)]n]
Stable? [1]: Yes

O=C([O-])CCC(=O)[O-].[Li+].[Li+] [Compound 16, [Li2 (succinate)]n]
Stable? [1]: Yes

O=C([O-])c1ccccc1.[Li+] [Compound 18, [Li (benzoate)]n]
Stable? [1]: Yes

CNCC(=O)O.O.O=C([O-])c1ccc(O)cc1.[Li+] [Compound 19, [Li(sarcosine)(4-hydroxybenzoate)(water)]n]
Stable? [1]: No

CC(O)C(=O)[O-].CC(O)C(=O)[O-].NC(N)=O.O.O.[Li+].[Li+] (stereo not drawn) [Compound 21, [(Li2(lactate)2(water)2)(urea)]n]
Stable? [1]: No

NC(=O)c1ccncc1.O.O=C([O-])/C=C\C(=O)O.[Li+] [Compound 22, [Li(maleate)(isonicotinamide) (water)]n]
Stable? [1]: No

CC1=CC(=O)[N-]S(=O)(=O)O1.O.[Li+] [Compound 23, [Li(acesulfame)(water)]n]
Stable? [1]: No

NCCC(=O)O.NCCC(=O)O.O.O=C([O-])C(=O)[O-].[Li+].[Li+] [Compound 25, [Li2(oxalate)(beta-alanine)2(water)]n]
Stable? [1]: No

CC1(C)C2CCC1(CS(=O)(=O)[O-])C(=O)C2.CC1(C)C2CCC1(CS(=O)(=O)[O-])C(=O)C2.NC(N)=O.NC(N)=O.O.O.[Li+].[Li+] (stereo not drawn) [Compound 28, [Li2(camphorsulphonate)2(urea)2 (water)2]]
Stable? [1]: No

CC1(C)C2CCC1(CS(=O)(=O)[O-])C(=O)C2.CNCC(=O)O.O.O.[Li+] (stereo not drawn) [Compound 30, [Li(camphorsulfonate)(sarcosine)(water)2]]
Stable? [1]: No

NC(=O)c1ccncc1.NC(=O)c1ccncc1.NC(=O)c1ccncc1.NC(=O)c1ccncc1.NC(=O)c1ccncc1.NC(=O)c1ccncc1.NC(=O)c1ccncc1.NC(=O)c1ccncc1.O=C([O-])c1ccccc1O.O=C([O-])c1ccccc1O.O=C([O-])c1ccccc1O.O=C([O-])c1ccccc1O.[Li+].[Li+].[Li+].[Li+] [Compound 32, [Li2(salicylate)2(isonicotinamide)4]2]
Stable? [1]: No

O=C([O-])[O-].[Li+].[Li+] [Lithium carbonate, lithium carbonate, reference compound]
Cmax (brain) [2]: 5.9900 µg/g | Tmax (brain) [2]: 24 h | t½_Lambda_z (brain) [2]: 13.7913 h | AUClast (brain) [2]: 232.4100 mg·h/g | Relative Brain BA (UL crystal forms, oral vs Li2CO3, oral) [2]: 100.00% | Cmax (plasma) [2]: 8413.3 ng/mL | Tmax (plasma) [2]: 24 h | t½_Lambda_z (plasma) [2]: 7.3913 h | Relative Plasma BA (UL crystal forms, oral vs Li2CO3 oral) [2]: 100.00% | BRAIN CONC., Time(h) 2.00 [2]: 0.60 µg/g and 1.43 µg/g and 0.68 µg/g | PLASMA CONC, Time(h) 2.00 [2]: 3020 ng/mL and 4820 ng/mL and 2720 ng/mL | BRAIN CONC., Time(h) 24.00 [2]: 7.89 µg/g and 4.55 µg/g and 5.53 µg/g | PLASMA CONC, Time(h) 24.00 [2]: 8720 ng/mL and 5320 ng/mL and 11200 ng/mL | BRAIN CONC., Time(h) 48.00 [2]: 3.35 µg/g and 2.89 µg/g and 3.43 µg/g | PLASMA CONC, Time(h) 48.00 [2]: 1290 ng/mL and 1180 ng/mL and 1600 ng/mL | BRAIN CONC., Time(h) 72.00 [2]: 0.54 µg/g and 0.52 µg/g and 0.55 µg/g | PLASMA CONC, Time(h) 72.00 [2]: 140 ng/mL and 60 ng/mL and 80 ng/mL

Li(adeninate)(water)3 [Compound 8]
Stable? [1]: No

[(imidazolium)2^+(Li(hydrogen malate)2(water))^−] [Compound 33]
Stable? [1]: No

[Li2 (fumarate)]n [Compound 15]
Stable? [1]: Yes

[Li2 (oxalate)]n [Compound 17]
Stable? [1]: Yes

[Li(camphorsulfonate)(water)2] [Compound 29]
Stable? [1]: No

[Li(hydrogen maleate)(sarcosine)(water)] [Compound 27]
Stable? [1]: No

[Li(pyridoxinate)(water)]n [Compound 10]
Stable? [1]: No

{[Li(malate) (water)2]•(imidazolium)}n [Compound 26]
Stable? [1]: No

{[Li(p-toluenesulfonate)]•H30}n [Compound 31]
Stable? [1]: No
